{"source": "patent US8889667B2", "about": "(Agios Pharmaceuticals, Inc, priority 2010, dated 2014)"}
{"biological_target": "PKM2 (Homo sapiens, UniProt P14618)", "sequence (P14618 whole entry)": "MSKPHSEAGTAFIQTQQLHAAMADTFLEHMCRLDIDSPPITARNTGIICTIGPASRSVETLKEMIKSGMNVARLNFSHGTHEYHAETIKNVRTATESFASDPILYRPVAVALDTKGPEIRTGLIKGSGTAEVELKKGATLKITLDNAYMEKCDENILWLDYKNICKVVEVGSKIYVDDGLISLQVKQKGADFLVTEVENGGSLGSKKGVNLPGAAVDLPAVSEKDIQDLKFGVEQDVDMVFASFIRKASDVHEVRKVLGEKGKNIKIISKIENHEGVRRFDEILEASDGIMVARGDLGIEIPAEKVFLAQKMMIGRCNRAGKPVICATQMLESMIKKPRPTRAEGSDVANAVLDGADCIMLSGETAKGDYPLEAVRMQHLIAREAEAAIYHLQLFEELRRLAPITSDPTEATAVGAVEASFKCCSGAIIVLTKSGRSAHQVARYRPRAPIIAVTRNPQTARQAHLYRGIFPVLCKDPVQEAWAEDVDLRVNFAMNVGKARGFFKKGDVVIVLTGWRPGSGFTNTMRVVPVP", "experiment": "PKM2 Assay (activation, LDH-coupled, absorbance at 340 nm)", "format": "biochemical", "settings": "Table 4", "method_in_brief": "(§1)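 Human PKM2 (50 ng/well) was preincubated with compound and coupling mix for 30 min at 4 °C without ADP. Reactions were then started with ADP (0.7 mM) alongside PEP 0.15 mM, NADH 180 μM and LDH, in Tris pH 7.5/KCl/MgCl2/DTT/BSA buffer. A340 was followed at 25 °C and activation reported as AC50.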", "units": {"AC50": "µM"}}
{"smiles": "C[C@H]1CN(CC2CCOC2)CCN1C(=O)c1ccc(NS(=O)(=O)c2cccc3cccnc23)cc1", "note": "(stereo partly drawn) [Compound 139, N-(4-((2S)-2-methyl-4-((tetrahydrofuran-3-yl)methyl)piperazine-1-carbonyl)phenyl)quinoline-8-sulfonamide]", "AC50": "0.1 to 0.5"}
{"smiles": "CC(c1ccc(Cl)c(F)c1)N1CCN(C(=O)c2ccc(NS(=O)(=O)c3cccc4cccnc34)cc2)[C@H](C)C1", "note": "(stereo partly drawn) [Compound 157, N-(4-((2R)-4-(1-(4-chloro-3-fluorophenyl)ethyl)-2-methylpiperazine-1-carbonyl)phenyl)quinoline-8-sulfonamide]", "AC50": "0.1 to 0.5"}
{"smiles": "CC(c1ccc(F)c(F)c1F)N1CCN(C(=O)c2ccc(NS(=O)(=O)c3cccc4cccnc34)cc2)[C@H](C)C1", "note": "(stereo partly drawn) [Compound 189, N-(4-((2R)-2-methyl-4-(1-(2,3,4-trifluorophenyl)ethyl)piperazine-1-carbonyl)phenyl)quinoline-8-sulfonamide]", "AC50": "< 0.1"}
{"smiles": "C[C@H]1CN(Cc2cc(F)cc(F)c2F)CCN1C(=O)c1ccc(NS(=O)(=O)c2cccc3cccnc23)cc1", "note": "[Compound 137, (S)—N-(4-(2-methyl-4-(2,3,5-trifluorobenzyl)piperazine-1-carbonyl)phenyl)quinoline-8-sulfonamide]", "AC50": "< 0.1"}
{"smiles": "C[C@H]1CN(Cc2cc(F)c(F)cc2F)CCN1C(=O)c1ccc(NS(=O)(=O)c2cccc3cccnc23)cc1", "note": "[Compound 145, (S)—N-(4-(2-methyl-4-(2,4,5-trifluorobenzyl)piperazine-1-carbonyl)phenyl)quinoline-8-sulfonamide]", "AC50": "< 0.1"}
{"smiles": "CC[C@H]1CN(C(C)c2cc(F)c(F)c(F)c2)CCN1C(=O)c1ccc(NS(=O)(=O)c2cccc3cccnc23)cc1", "note": "(stereo partly drawn) [Compound 162, N-(4-((2S)-2-ethyl-4-(1-(3,4,5-trifluorophenyl)ethyl)piperazine-1-carbonyl)phenyl)quinoline-8-sulfonamide]", "AC50": "0.1 to 0.5"}
{"biological_target": "PKM2 (Homo sapiens, UniProt P14618)", "experiment": "PKM2 Assay (activation, LDH-coupled, absorbance at 340 nm)", "format": "biochemical", "settings": "Table 5", "method_in_brief": "as §1", "units": {"AC50": "µM"}}
{"smiles": "O=C(c1ccc(NS(=O)(=O)c2cccc3cccnc23)cn1)N1CCN(Cc2cc(F)cc(F)c2)CC1", "note": "[Compound 414, N-(6-(4-(3,5-difluorobenzyl)piperazine-1-carbonyl)pyridin-3-yl)quinoline-8-sulfonamide]", "AC50": "0.1 to 0.5"}
{"smiles": "O=C(c1ccc(NS(=O)(=O)c2cccc3cccnc23)cc1)N1CCN(C(=O)C2CCOCC2)CC1", "note": "[Compound 417, N-(4-(4-(tetrahydro-2H-pyran-4-carbonyl)piperazine-1-carbonyl)phenyl)quinoline-8-sulfonamide]", "AC50": "0.1 to 0.5"}
{"smiles": "O=C(c1cnc(NS(=O)(=O)c2cccc3cccnc23)cn1)N1CCN(CC2CC2)CC1", "note": "[Compound 451, N-(5-(4-(cyclopropylmethyl)piperazine-1-carbonyl)pyrazin-2-yl)quinoline-8-sulfonamide]", "AC50": "> 20"}
{"smiles": "O=C(c1ccncc1)N1CCN(C(=O)c2ccc(NS(=O)(=O)c3cccc4cccnc34)c(OC(F)(F)F)c2)CC1", "note": "[Compound 363]", "AC50": "0.1 to 0.5"}
{"smiles": "O=C(c1ccc(NS(=O)(=O)c2cccc3cccnc23)cc1)N1CCN(C(=O)c2nccs2)CC1", "note": "[Compound 371, N-(4-(4-(thiazole-2-carbonyl)piperazine-1-carbonyl)phenyl)quinoline-8-sulfonamide]", "AC50": "< 0.1"}
{"smiles": "COc1cc(C(=O)N2CCN(C(C)(C)c3ccccc3)CC2)ccc1NS(=O)(=O)c1cccc2cccnc12", "note": "[Compound 356, N-(2-methoxy-4-(4-(2-phenylpropan-2-yl)piperazine-1-carbonyl)phenyl)quinoline-8-sulfonamide]", "AC50": "< 0.1"}
{"smiles": "CC(C)(C1CC1)N1CCN(C(=O)c2ccc(NS(=O)(=O)c3cccc4cccnc34)cc2)CC1", "note": "[Compound 438, N-(4-(4-(2-cyclopropylpropan-2-yl)piperazine-1-carbonyl)phenyl)quinoline-8-sulfonamide]", "AC50": "< 0.1"}
{"smiles": "O=C(c1ccc(NS(=O)(=O)c2cccc3cccnc23)cc1F)N1CCN(CC2CCCO2)CC1", "note": "(centres unmarked) [Compound 437, N-(3-fluoro-4-(4-((tetrahydrofuran-2-yl)methyl)piperazine-1-carbonyl)phenyl)quinoline-8-sulfonamide]", "AC50": "< 0.1"}
